Experimental findings from US4201769A, “Antibiotic substances No. 17927A1 and No. 17927A2 and process for producing the same” (Sankyo Company Limited, priority 1977, dated 1980) are described below.

Read-outs that look alike come from different tables or passages of the source.

Holding throughout (format): cell-based
One test deals with Escherichia coli 718. Briefly: Synergistic action with Ampicillin (MIC). The method, then: (§1) (13) Synergistic action: Synergistic action of the substance No. 17927A2 having 0.23 μg/ml of I50 (50% Inhibitory concentration) against β-lactamase produced from Proteus morganii with Cephaloridine or Ampicillin are summarized in Tables 6 and 7.
The next test relates to Escherichia coli 640. As to the kind of experiment: Synergistic action with Ampicillin (MIC). The method, then: as §1
The subject of the next test is Proteus rettgeri 1603. As to the kind of experiment: Synergistic action with Ampicillin or Cephaloridine (MIC). Here is the method:
as §1
(§2) (13) Synergistic action: Synergistic action of the substance No. 17927A1 having 0.27 μg/ml of I50 (50% Inhibitory concentration) against β-lactamase produced from Proteus morganii with Cephaloridine are summarized in Table 10.

A further test relates to Proteus inconstans 1708. As to the kind of experiment: Synergistic action with Cephaloridine (MIC). The method, then: as §1, §2
For test [1], the system named is Klebsiella pneumoniae 847. Briefly: Synergistic action with Cephaloridine (MIC). Here is the method:
as §1, §2

The test system of a further test is Proteus mirabilis 1332. As to the kind of experiment: Synergistic action with Cephaloridine (MIC). Here is the method: as §2
The next test relates to Proteus morganii 1510. As to the kind of experiment: Synergistic action with Cephaloridine (MIC). The method, then: as §2
The next test has as its system Escherichia coli 609. Briefly: Synergistic action with Cephaloridine (MIC). The method, then:
as §2

[2] abbreviates: No. 17927A2 coexisted 0.1 μg/ml.
The mark [3] stands for this setting: No. 17927A1 coexisted 0.1 μg/ml.
Where [4] appears, read: No. 17927A1 coexisted 0.4 μg/ml.

The MIC is the lowest concentration that inhibits growth of the organism. With `CC1(C)S[C@@H]2[C@H](NC(=O)[C@H](N)c3ccccc3)C(=O)N2[C@H]1C(=O)O` [Ampicillin], the MIC in the test on Escherichia coli 718 (Escherichia coli, 718, read-out: MIC, Ampicillin alone) came out at 800 µg/mL; in the test with Escherichia coli 640 (Escherichia coli, 640, read-out: MIC, Ampicillin alone), 25 µg/mL; with Proteus rettgeri 1603 (Providencia rettgeri, 1603, read-out: MIC, Ampicillin alone) it was 100 µg/mL. Moreover, the “MIC, Ampicillin with No. 17927A2 coexisted” value in the test on Escherichia coli 718 (setting [2]) came to 25 µg/mL; in the test with Escherichia coli 640 (setting [2]), 1.56 µg/mL; in the test with Proteus rettgeri 1603 (setting [2]) it was 50 µg/mL.

On to `O=C(Cc1cccs1)N[C@@H]1C(=O)N2C(C(=O)[O-])=C(C[n+]3ccccc3)CS[C@H]12` [Cephaloridine], for which the “MIC, Cephaloridine with No. 17927A1 coexisted” value in the test with Proteus inconstans 1708 (setting [3]) was 6.25 µg/mL; with Proteus inconstans 1708 (setting [4]) it was 3.13 µg/mL; in test [1] (setting [3]) it was 12.5 µg/mL; in test [1] (setting [4]) it was 12.5 µg/mL; in the test with Proteus mirabilis 1332 (setting [3]), 50 µg/mL; in the test on Proteus mirabilis 1332 (setting [4]) it was 50 µg/mL. The “MIC, Cephaloridine with No. 17927A1 coexisted” value in the test on Proteus morganii 1510 (setting [3]) was 50 µg/mL; in the test with Proteus morganii 1510 (setting [4]) it was 50 µg/mL; with Escherichia coli 609 (setting [3]), 100 µg/mL; in the test on Escherichia coli 609 (setting [4]), 50 µg/mL; with Proteus rettgeri 1603 (setting [3]) it was 50 µg/mL; in the test on Proteus rettgeri 1603 (setting [4]) it was 25 µg/mL. The “MIC, Cephaloridine with No. 17927A2 coexisted” value (in the test with Proteus inconstans 1708 (setting [2]); in test [1] (setting [2])) was 12.5 µg/mL throughout. For the same compound, the MIC turned out to be 1600 µg/mL in the test on Proteus inconstans 1708 (Providencia alcalifaciens, 1708, read-out: MIC, Cephaloridine alone); 100 µg/mL in test [1] (Klebsiella pneumoniae, 847, read-out: MIC, Cephaloridine alone); 100 µg/mL in the test on Proteus mirabilis 1332 (Proteus mirabilis, 1332, read-out: MIC, Cephaloridine alone); 1600 µg/mL in the test on Proteus morganii 1510 (Morganella morganii, 1510, read-out: MIC, Cephaloridine alone); 100 µg/mL in the test with Escherichia coli 609 (Escherichia coli, 609, read-out: MIC, Cephaloridine alone); 1600 µg/mL in the test with Proteus rettgeri 1603 (Providencia rettgeri, 1603, read-out: MIC, Cephaloridine alone).
